Like-named read-outs stand apart in the source and are kept apart here. Each block holds one molecule with its values, some of them ahead of it.
Tests used:
Type in all cases: cell-based
[1] = target: T1, 3β-hydroxysteroid dehydrogenase type 2 (3βHSD2) (Homo sapiens, UniProt P26439); assay: pregnenolone to progesterone conversion kinetics in transfected COS-1 cells, UPLC-MS/MS
T1 construct: gene HSD3B2
T1 sequence (P26439 1-372): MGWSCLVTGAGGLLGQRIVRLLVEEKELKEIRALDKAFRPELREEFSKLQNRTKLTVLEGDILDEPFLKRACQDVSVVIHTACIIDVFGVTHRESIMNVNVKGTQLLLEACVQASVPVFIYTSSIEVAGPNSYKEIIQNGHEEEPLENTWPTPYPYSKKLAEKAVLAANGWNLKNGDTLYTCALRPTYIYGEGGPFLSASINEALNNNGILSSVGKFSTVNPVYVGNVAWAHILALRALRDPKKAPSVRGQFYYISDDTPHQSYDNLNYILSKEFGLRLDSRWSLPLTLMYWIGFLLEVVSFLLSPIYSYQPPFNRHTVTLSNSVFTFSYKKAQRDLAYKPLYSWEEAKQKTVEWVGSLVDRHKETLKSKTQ

[2] = target: T2, cytochrome P450 17α-hydroxylase/17,20 lyase (CYP17A1) (Homo sapiens, UniProt P05093); assay: progesterone conversion in transfected COS-1 cells with […] inhibitor, UPLC-MS/MS
T2 construct: pIRES-hCYP17A1-V5-X-hCYPB5-6HIS expressed in COS-1 cells

[3] = target: T1, 3β-hydroxysteroid dehydrogenase type 2 (3βHSD2); assay: Michaelis-Menten kinetics of conversion to progesterone in transfected COS-1 cells (Km), UPLC-MS/MS

T2 sequence (P05093 whole entry): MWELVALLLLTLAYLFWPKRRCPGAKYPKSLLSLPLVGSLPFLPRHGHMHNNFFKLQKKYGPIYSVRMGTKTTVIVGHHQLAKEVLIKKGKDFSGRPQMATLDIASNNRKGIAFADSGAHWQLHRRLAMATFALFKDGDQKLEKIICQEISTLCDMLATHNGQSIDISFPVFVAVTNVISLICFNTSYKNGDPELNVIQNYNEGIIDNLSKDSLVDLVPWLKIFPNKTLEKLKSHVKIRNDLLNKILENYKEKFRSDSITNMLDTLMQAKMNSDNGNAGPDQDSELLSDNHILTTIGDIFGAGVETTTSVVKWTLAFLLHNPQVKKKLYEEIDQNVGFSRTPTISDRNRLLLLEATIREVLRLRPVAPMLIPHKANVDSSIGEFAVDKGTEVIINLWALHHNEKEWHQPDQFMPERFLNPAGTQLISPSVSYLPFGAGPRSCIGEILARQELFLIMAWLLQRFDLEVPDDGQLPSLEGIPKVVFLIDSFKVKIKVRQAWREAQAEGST
T2 sequence (P00167 2-134, further chain): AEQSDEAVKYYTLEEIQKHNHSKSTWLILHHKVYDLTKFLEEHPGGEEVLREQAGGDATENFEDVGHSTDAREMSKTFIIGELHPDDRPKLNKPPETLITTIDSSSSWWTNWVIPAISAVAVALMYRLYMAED

Structure (SMILES): C[C@]12CCC(=O)C=C1[C@@H]1C[C@@H]1[C@H]1[C@@H]3[C@@H]4C[C@@H]4[C@@]4(CCC(=O)O4)[C@@]3(C)CC[C@@H]12 [DRSP, drospirenone]
Ki ([1]; read-out: Ki): 232 ± 38 nM
inhibition at 1 µM [2]: 55.2 ± 16.5%

Structure (SMILES): CC(=O)[C@H]1CC[C@H]2[C@@H]3CC=C4C[C@@H](O)CC[C@]4(C)[C@H]3CC[C@]12C [Preg, pregnenolone]
Km [3]: 0.85 ± 0.05 µM

Structure (SMILES): C[C@]12CC[C@H]3[C@@H](CC[C@@]45O[C@@H]4C(O)=C(C#N)C[C@]35C)[C@@H]1CC[C@@H]2O [trilostane, reference compound]
Ki [1]: 31.3 ± 5.5 nM

Next, values leading:

Ki ([1]; read-out: Ki): 9.5 ± 0.96 nM
Structure (SMILES): C=C1C[C@H]2[C@@H]3CCC4=CC(=O)CCC4[C@H]3CC[C@]2(C)C1(OC(C)=O)C(C)=O (stereo partly drawn) [NES, nestorone]

Ki ([1]; read-out: Ki): 29 ± 7.1 nM
Structure (SMILES): CC(=O)O[C@]1(C(C)=O)CC[C@H]2[C@@H]3C=C(C)C4=CC(=O)CC[C@@H]4[C@H]3CC[C@@]21C [NoMAC, nomegestrol acetate]
